Reference: patent publication US20100048533A1, “LESTAURTINIB CRYSTALLINE FORM 1, CRYSTALLINE LESTAURIMIB ANHYDRATE AND AMORPHOUS LESTAURIMIB” (ABBOTT LABORATORIES, priority 2005, published 2010)
In brackets after ≈: the same amount, converted by molar mass.

Experiments:
[1] = Thermogravimetric analysis (TGA) moisture / weight loss; format: physicochemical; details: for weight loss: TGA
Description: TGA data were obtained using a TA Instruments Model 3100 and 5200 Thermal Analysts with a Model 2950 Hi Res TGA module. TGA thermograms were acquired at a heating rate of 5° C. per minute, under nitrogen purge with a flow rate of about 40 mL per minute.

[2] = Dynamic moisture sorption gravimetry (DMSG) (hygroscopicity); format: physicochemical
Description: Because moisture-mediated crystallization was not observed during RH levels between 5% and 10%, it was concluded that the solid at 5% RH was crystalline; and because the solid contained less than 0.5% water, it was also determined that it was an anhydrate.
Dynamic moisture sorption gravimetry (DMSG) (hygroscopicity) data were obtained on a VTI Corporation model MB 300 G sorption microbalance using vacuum to control RH. The automated system controlled the RH and temperature to which each sample was exposed, while continuously recording sample weight changes. Sorption and desorption isotherms were performed at 25±0.1° C. with 5±1% RH step intervals from 0-95% RH. Samples of about 15-30 mg were dried under vacuum for up to 3 hours (approximate RH=0-1% RH) before each experiment. The weight loss observed during the drying period was used to estimate how tightly each sample held onto water. After the drying period, sorption isotherms started at 5% RH. A critical weight equilibrium of less than […] weight change over three 5 minutes periods was used to move to the next step. […] Meaning that any water present in the sample was surface water and not lattice water.

[3] = Solid-state stability of crystalline forms versus relative humidity; format: physicochemical; details: for RH above which the form converts to a higher hydrate: ambient temperature
[4] = Solubility in 200 proof ethanol by HPLC (saturated solutions, two-day slurry); details: slurried two days
Description: Solubility of Lestaurtinib Crystalline Form 1 and anhydrous lestaurtinib at 26° C. and 2-8° C. was determined using HPLC. Saturated solutions of the solid-state phase in ethanol (200 poof) were obtained by slurrying a sample in ethanol for two days at 26° C. and at 2-8° C. After slurrying, each solution was filtered through 0.45 μm micron filter and the level of CEP-701 was determined by HPLC.

[5] = Slurry of lestaurtinib forms in 200 proof ethanol for 48 hours, remaining form analyzed by PXRD; details: for Form After Mixing With Ethanol For 48 Hours: 200 proof ethanol, PXRD
Description: The forms of lestaurtinib remaining were analyzed by PXRD to determine if any crystal form conversion had occurred.

C[C@]12O[C@H](C[C@]1(O)CO)n1c3ccccc3c3c4c(c5c6ccccc6n2c5c31)CNC4=O [Amorphous, Amorphous Lestaurtinib]
weight loss ([1]; up to about 184° C.): 5.56%

C[C@]12O[C@H](C[C@]1(O)CO)n1c3ccccc3c3c4c(c5c6ccccc6n2c5c31)CNC4=O [Crystalline lestaurtinib anhydrate, Crystalline Lestaurtinib Anhydrate]
water content of solid-state phase ([2]; DMSG, 25° C., between 0% and 5% RH): less than 0.5% | RH above which the form converts to a higher hydrate [3]: above 5 % RH

C[C@]12O[C@H](C[C@]1(O)CO)n1c3ccccc3c3c4c(c5c6ccccc6n2c5c31)CNC4=O.O [Crystalline lestaurtinib monohydrate, crystalline lestaurtinib monohydrate]
RH above which the form converts to a higher hydrate [3]: above 40 % RH | factor by which ability to absorb water is reduced when ground ([3]; ground with mortar and pestle vs unground): about 6

CC12OC(CC1(O)CO)n1c3ccccc3c3c4c(c5c6ccccc6n2c5c31)C(=O)NC4 (stereo not shown) [Form I, Lestaurtinib Crystalline Form 1]
Solubility ([4]; 2-8° C.): 2.38 mg/mL (≈ 5.42 mM) | Solubility ([4]; 26° C.): 2.60 mg/mL (≈ 5.92 mM) | Form After Mixing With Ethanol For 48 Hours ([5]; 2-8° C.): 1 | Form After Mixing With Ethanol For 48 Hours ([5]; 26° C.): 1 | relative stability of crystalline form ([5]; ambient temperature and 2-8° C.): most stable crystalline form of lestaurtinib | hygroscopicity [2]: non-hygroscopic | nominal moisture uptake ([2]; DMSG, 25° C.): about 0.2 % (w/w) | moisture uptake ([2]; DMSG, 25° C., 0-95% RH): up to 0.4% | equilibrium moisture content (EMC) ([2]; DMSG, at moisture uptake up to about 0.4%): about 0.1 mole water per mole drug | equilibrium moisture content (EMC) ([2]; DMSG, at nominal moisture uptake of about 0.2%): about 0.05 mole water per mole drug | weight loss ([1]; up to about 100° C.): 0.04% | moisture ([1]; determined by TGA): less than 0.05% | solid state conversion ([3]; regardless of temperature or relative humidity): not known to undergo solid state conversion

CC#N.CC12OC(CC1(O)CO)n1c3ccccc3c3c4c(c5c6ccccc6n2c5c31)C(=O)NC4.CC12OC(CC1(O)CO)n1c3ccccc3c3c4c(c5c6ccccc6n2c5c31)C(=O)NC4.O (stereo not shown) [hemi: hydrate/acetonitrileate, Crystalline Lestaurtinib Hemihydrate Hemiacetonitrileate]
Form After Mixing With Ethanol For 48 Hours ([5]; 2-8° C.): 1 | Form After Mixing With Ethanol For 48 Hours ([5]; 26° C.): 1

C[C@]12O[C@H](C[C@]1(O)CO)n1c3ccccc3c3c4c(c5c6ccccc6n2c5c31)CNC4=O [hydrated, Crystalline Hydrated Lestaurtinib]
Form After Mixing With Ethanol For 48 Hours ([5]; 2-8° C.): 1 | Form After Mixing With Ethanol For 48 Hours ([5]; 26° C.): 1
